From patent US7968098B2, “HLA-A24-binding KIF-derived peptide” (Kurume University, priority 2006, dated 2011)
Where two headings read alike, the source gives them in different places.

What was measured:
[1] = system: anti-peptide immunoglobulin G (IgG) in plasma; experiment: Anti-peptide IgG in plasma measured by the Luminex system; format: binding, human; settings: for Total (IgG-positive cases/total cases): positive = >1.25 times no peptide control; for Positive cases/total cases, Patients: Table 3, IgGs reactive to peptide in plasma of glioma patients; for Positive cases/total cases, Healthy donors: Table 3, IgGs reactive to peptide in plasma of healthy donors; for Positive cases/total cases, Total: Table 3, patients plus healthy donors; for Recognition by IgGs in the plasma compared with the other peptides: plasma of glioma patients and healthy donors
Method: The levels of anti-peptide immunoglobulin G (IgG) were measured by the Luminex™ system as previously reported (Komatsu N et al, Scand J Clin Invest 2004; 64: 1-11). In brief, plasma was incubated with 25 μl of peptide-coupled color-coded beads (Luminex Corp., Austin, Tex., USA) for 2 h at room temperature on a plate shaker. After incubation, the mixture was washed with a vacuum manifold apparatus and incubated with 100 μl of biotinylated goat anti-human IgG (BA-3080, Vector Laboratories, Burlingame, Calif., USA) for 1 h at room temperature. The plate was then washed, and 100 μl of streptavidin-PE (S-866, Molecular Probes, Eugene, Oreg., USA) was added to each well and was incubated for 30 min at room temperature on a plate shaker. The bound beads were washed three times followed by the addition of 100 μl of Tween-PBS to each well. Fifty μl of each sample was then examined using the Luminex™ system.
Next, the abilities of the KIF-derived peptides to be recognized by IgGs of glioma patients were examined, because IgGs reactive to CTL-directed peptides are detectable in the plasma of patients with different types of cancer (Nakatsura T et al, Eur J Immunol 32: 826-836, 2002), along with that levels of IgG well correlated with clinical responses of patients who received peptide vaccination as reported previously (Mine T et al, Clin Cancer Res 10: 929-937, 2004; Yajima N et al, Clin Cancer Res 11: 5900-5911, 2005). IgGs reactive to a corresponding peptide were judged to be significant when the immunofluorescence intensity in 1:100-diluted plasma exceeded 1.25 times that of the control samples with no peptides. […] Based on these findings, these 8 KIF peptides (3 for KIF1C, 3 for KIF3C, and 2 for KIF21B) were the focus of the following experiments.

[2] = system: PBMCs of HLA-A24+ glioma patients; format: cell-based, human; settings: for IFN-γ: vs HIV peptide
[3] = Healthy donor 1, 1:100-diluted plasma
[4] = Healthy donor 2, 1:100-diluted plasma
[5] = Healthy donor 3, 1:100-diluted plasma
[6] = Healthy donor 4, 1:100-diluted plasma
[7] = Healthy donor 5, 1:100-diluted plasma
[8] = glioma Patient 1, 1:100-diluted plasma
[9] = glioma Patient 2, 1:100-diluted plasma
[10] = glioma Patient 3, 1:100-diluted plasma
[11] = glioma Patient 4, 1:100-diluted plasma
[12] = glioma Patient 5, 1:100-diluted plasma
[13] = glioma Patient 8, 1:100-diluted plasma
[14] = glioma Patient 9, 1:100-diluted plasma
[15] = HLA-A24+ glioma patients, positive = P<0.05 and >100 pg/ml IFN-γ over HIV peptide
[16] = PBMCs of HLA-A24+ glioma Patient 1, 10 μg/ml peptide
[17] = PBMCs of HLA-A24+ glioma Patient 2, 10 μg/ml peptide
[18] = PBMCs of HLA-A24+ glioma Patient 3, 10 μg/ml peptide
[19] = PBMCs of HLA-A24+ glioma Patient 4, 10 μg/ml peptide
[20] = PBMCs of HLA-A24+ glioma Patient 7, 10 μg/ml peptide
[21] = PBMCs of HLA-A24+ glioma Patient 9, 10 μg/ml peptide
[22] = PBMCs of HLA-A24+ glioma Patient 10, 10 μg/ml peptide
[23] = glioma Patient 7, 1:100-diluted plasma
[24] = Healthy donor 6, 1:100-diluted plasma
[25] = Healthy donor 7, 1:100-diluted plasma
[26] = Healthy donor 8, 1:100-diluted plasma
[27] = Healthy donor 9, 1:100-diluted plasma
[28] = glioma Patient 6, 1:100-diluted plasma
[29] = glioma Patient 10, 1:100-diluted plasma

## VYQIPQRRRL (KIF1C 725-734 peptide)
[1]; [3]
  Immunofluoresence intensity: 99.5
[1]; [4]
  Immunofluoresence intensity: 19.5
[1]; [5]
  Immunofluoresence intensity: 66.8
[1]; [6]
  Immunofluoresence intensity: 30.5
[1]; [7]
  Immunofluoresence intensity: 52.5
[1]; Table 2, glioma patients
  Total (IgG-positive cases/total cases): 4/10
[1]; Table 2, healthy donors
  Total (IgG-positive cases/total cases): 5/10
[1]
  Positive cases/total cases, Patients: 3/10
  Positive cases/total cases, Healthy donors: 5/10
  Positive cases/total cases, Total: 8/20
[1]; [8]
  Immunofluoresence intensity: 65.5
[1]; [9]
  Immunofluoresence intensity: 85.3
[1]; [10]
  Immunofluoresence intensity: 61.3
[1]; [11]
  Immunofluoresence intensity: 19.5
[1]; [12]
  Immunofluoresence intensity: 98.5
[1]; [13]
  Immunofluoresence intensity: 10.0
[1]; [14]
  Immunofluoresence intensity: 9.3

## HYDGIECLAI (KIF21B 621-630 peptide)
[1]
  Positive cases/total cases, Patients: 2/10
  Positive cases/total cases, Healthy donors: 5/10
  Positive cases/total cases, Total: 7/20
  Recognition by IgGs in the plasma compared with the other peptides: more frequently
[2]; [15]
  Total (patients with induction of peptide-reactive CTLs): 3/10
[2]; [16]
  IFN-γ: 0 pg/mL
[2]; [17]
  IFN-γ: 10 pg/mL
[2]; [18]
  IFN-γ: 0 pg/mL
[2]; [19]
  IFN-γ: 0 pg/mL
[2]; [20]
  IFN-γ: 93 pg/mL
[2]; [21]
  IFN-γ: 0 pg/mL
[2]; [22]
  IFN-γ: 0 pg/mL

## QYLVRASYL (KIF3C 137-145 peptide)
[1]
  Positive cases/total cases, Patients: 2/10
  Positive cases/total cases, Healthy donors: 1/10
  Positive cases/total cases, Total: 3/20

## GYASTDEEI (KIF21B 220-228 peptide)
[1]
  Positive cases/total cases, Patients: 2/10
  Positive cases/total cases, Healthy donors: 3/10
  Positive cases/total cases, Total: 5/20
  Recognition by IgGs in the plasma compared with the other peptides: more frequently
[2]; [15]
  Total (patients with induction of peptide-reactive CTLs): 4/10
[2]; [16]
  IFN-γ: 0 pg/mL
[2]; [17]
  IFN-γ: 29 pg/mL
[2]; [18]
  IFN-γ: 56 pg/mL
[2]; [20]
  IFN-γ: 51 pg/mL
[2]; [21]
  IFN-γ: 0 pg/mL
[2]; [22]
  IFN-γ: 0 pg/mL

## VYRDIGEEML (KIF1C 73-82 peptide)
[1]; [4]
  Immunofluoresence intensity: 19.5
[1]; [5]
  Immunofluoresence intensity: 64.5
[1]; [6]
  Immunofluoresence intensity: 29.5
[1]; [7]
  Immunofluoresence intensity: 50.0
[1]; Table 2, glioma patients
  Total (IgG-positive cases/total cases): 3/10
[1]; Table 2, healthy donors
  Total (IgG-positive cases/total cases): 6/10
[1]
  Positive cases/total cases, Patients: 3/10
  Positive cases/total cases, Healthy donors: 6/10
  Positive cases/total cases, Total: 9/20
[1]; [8]
  Immunofluoresence intensity: 57.8
[1]; [9]
  Immunofluoresence intensity: 80.5
[1]; [10]
  Immunofluoresence intensity: 46.8
[1]; [11]
  Immunofluoresence intensity: 17.5
[1]; [23]
  Immunofluoresence intensity: 68.5
[1]; [13]
  Immunofluoresence intensity: 11.5
[1]; [14]
  Immunofluoresence intensity: 11.0

## TYGPVFMCL [EBV, reference compound]
[2]
  Total (patients with induction of peptide-reactive CTLs): 1/10

## KYCSHSGLVF (KIF21B 473-482 peptide)
[1]
  Positive cases/total cases, Patients: 2/10
  Positive cases/total cases, Healthy donors: 2/10
  Positive cases/total cases, Total: 4/20

## IYQEEIRDLL (KIF3C 147-156 peptide)
[1]
  Positive cases/total cases, Patients: 0/10
  Positive cases/total cases, Healthy donors: 1/10
  Positive cases/total cases, Total: 1/20

## GYLIIENFI (KIF3C 629-637 peptide)
[1]
  Positive cases/total cases, Patients: 0/10
  Positive cases/total cases, Healthy donors: 1/10
  Positive cases/total cases, Total: 1/20

## NYEETLSTL (KIF1C 331-339 peptide)
[1]; [3]
  Immunofluoresence intensity: 70.0
[1]; [4]
  Immunofluoresence intensity: 13.5
[1]; [5]
  Immunofluoresence intensity: 29.0
[1]; [6]
  Immunofluoresence intensity: 16.5
[1]; [7]
  Immunofluoresence intensity: 35.0
[1]; [24]
  Immunofluoresence intensity: 40.0
[1]; [25]
  Immunofluoresence intensity: 233.0
[1]; [26]
  Immunofluoresence intensity: 4133.0
[1]; [27]
  Immunofluoresence intensity: 22.5
[1]; Healthy donor 10, 1:100-diluted plasma
  Immunofluoresence intensity: 62.5
[1]; Table 2, glioma patients
  Total (IgG-positive cases/total cases): 0/10
[1]; Table 2, healthy donors
  Total (IgG-positive cases/total cases): 0/10
[1]
  Positive cases/total cases, Patients: 0/10
  Positive cases/total cases, Healthy donors: 0/10
  Positive cases/total cases, Total: 0/20
[1]; [8]
  Immunofluoresence intensity: 33.5
[1]; [9]
  Immunofluoresence intensity: 39.5
[1]; [10]
  Immunofluoresence intensity: 22.0
[1]; [11]
  Immunofluoresence intensity: 10.5
[1]; [12]
  Immunofluoresence intensity: 53.5
[1]; [28]
  Immunofluoresence intensity: 86.5
[1]; [23]
  Immunofluoresence intensity: 35.5
[1]; [13]
  Immunofluoresence intensity: 8.5
[1]; [14]
  Immunofluoresence intensity: 5.5
[1]; [29]
  Immunofluoresence intensity: 485.4

## AFIPGRPML (KIF21B 670-678 peptide)
[1]
  Positive cases/total cases, Patients: 2/10
  Positive cases/total cases, Healthy donors: 2/10
  Positive cases/total cases, Total: 4/20

## IYQEEIRDL (KIF3C 147-155 peptide)
[1]
  Positive cases/total cases, Patients: 0/10
  Positive cases/total cases, Healthy donors: 1/10
  Positive cases/total cases, Total: 1/20

## AFIPGRPMLL (KIF21B 670-679 peptide)
[1]
  Positive cases/total cases, Patients: 2/10
  Positive cases/total cases, Healthy donors: 2/10
  Positive cases/total cases, Total: 4/20

## NYVPGLTPCL (KIF21B 731-740 peptide)
[1]
  Positive cases/total cases, Patients: 1/10
  Positive cases/total cases, Healthy donors: 1/10
  Positive cases/total cases, Total: 2/20

## RFYIQMCTEL (Flu virus-derived peptide) [reference compound]
[2]; [15]
  Total (patients with induction of peptide-reactive CTLs): 3/10
[2]; [16]
  IFN-γ: 29 pg/mL
[2]; [17]
  IFN-γ: 0 pg/mL
[2]; [19]
  IFN-γ: 0 pg/mL
[2]; [20]
  IFN-γ: 95 pg/mL
[2]; PBMCs of HLA-A24+ glioma Patient 8, 10 μg/ml peptide
  IFN-γ: 0 pg/mL
[2]; [21]
  IFN-γ: 0 pg/mL
[2]; [22]
  IFN-γ: 0 pg/mL

## EYIRVRQDL (KIF3C 607-615 peptide)
[1]
  Positive cases/total cases, Patients: 2/10
  Positive cases/total cases, Healthy donors: 3/10
  Positive cases/total cases, Total: 5/20

## CYEVALADF (KIF1C 756-764 peptide)
[1]; [3]
  Immunofluoresence intensity: 87.3
[1]; [4]
  Immunofluoresence intensity: 14.0
[1]; [5]
  Immunofluoresence intensity: 46.8
[1]; [6]
  Immunofluoresence intensity: 20.0
[1]; [7]
  Immunofluoresence intensity: 40.3
[1]; [24]
  Immunofluoresence intensity: 47.5
[1]; [25]
  Immunofluoresence intensity: 196.0
[1]; [26]
  Immunofluoresence intensity: 3893.5
[1]; [27]
  Immunofluoresence intensity: 27.0
[1]; Table 2, glioma patients
  Total (IgG-positive cases/total cases): 0/10
[1]; Table 2, healthy donors
  Total (IgG-positive cases/total cases): 1/10
[1]
  Positive cases/total cases, Patients: 0/10
  Positive cases/total cases, Healthy donors: 1/10
  Positive cases/total cases, Total: 1/20
[1]; [8]
  Immunofluoresence intensity: 36.5
[1]; [9]
  Immunofluoresence intensity: 45.0
[1]; [10]
  Immunofluoresence intensity: 28.8
[1]; [11]
  Immunofluoresence intensity: 11.5
[1]; [12]
  Immunofluoresence intensity: 58.0
[1]; [28]
  Immunofluoresence intensity: 185.8
[1]; [23]
  Immunofluoresence intensity: 40.3
[1]; [13]
  Immunofluoresence intensity: 6.5
[1]; [14]
  Immunofluoresence intensity: 7.5
[1]; [29]
  Immunofluoresence intensity: 658.0

## VYIKDLSSF (KIF3C 174-182 peptide)
[1]
  Positive cases/total cases, Patients: 1/10
  Positive cases/total cases, Healthy donors: 2/10
  Positive cases/total cases, Total: 3/20

## SYDESLSTL (KIF3C 347-355 peptide)
[1]
  Positive cases/total cases, Patients: 0/10
  Positive cases/total cases, Healthy donors: 0/10
  Positive cases/total cases, Total: 0/20

## RYRAENIMFL (KIF3C 702-711 peptide)
[1]
  Positive cases/total cases, Patients: 2/10
  Positive cases/total cases, Healthy donors: 5/10
  Positive cases/total cases, Total: 7/20

## RFVPPHDCKL (KIF1C 968-977 peptide)
[1]; [3]
  Immunofluoresence intensity: 117.0
[1]; [4]
  Immunofluoresence intensity: 23.5
[1]; [6]
  Immunofluoresence intensity: 33.0
[1]; [7]
  Immunofluoresence intensity: 58.5
[1]; [27]
  Immunofluoresence intensity: 32.3
[1]; Table 2, glioma patients
  Total (IgG-positive cases/total cases): 4/10
[1]; Table 2, healthy donors
  Total (IgG-positive cases/total cases): 5/10
[1]
  Positive cases/total cases, Patients: 4/10
  Positive cases/total cases, Healthy donors: 5/10
  Positive cases/total cases, Total: 9/20
[1]; [8]
  Immunofluoresence intensity: 77.0
[1]; [11]
  Immunofluoresence intensity: 27.0
[1]; [12]
  Immunofluoresence intensity: 97.0
[1]; [23]
  Immunofluoresence intensity: 74.8
[1]; [13]
  Immunofluoresence intensity: 12.5
[1]; [14]
  Immunofluoresence intensity: 19.5
